Consider 25 molecules from patent US20250333418A1, “PURINE COMPOUNDS, COMPOSITIONS COMPRISING THEM AND USES THEREOF” (Novo Nordisk A/S, priority 2022, published 2025).

Where only a bound is given, the exact number is not on record here.

Experiment [1] addresses T1, human CB1 receptor (Homo sapiens, UniProt P21554).
T1 construct: expressed in transfected cells; host or cells: HEK293
The experiment is described as follows: bioSensAll GAPL-Gi2 BRET biosensor assay in HEK293 cells transfected with hCB1; test compound added before EC75-80 of agonist CP55,940 (0.1 nM). It is filed as cell-based. To be noted: vs CP55,940 0.1 nM (EC75-80), read-out: CB1 wt Gi2 IC50. As for the experimental part: (§1) Using polyethylenimine (PEI) transfection agent, HEK293 cells were transfected in suspension with the human CB1 receptor and one of the following bioSensAll® assays: GAPL-Gi2, or β-arrestin plasma membrane (PM) translocation biosensor (+GRK2). Cells were directly seeded in 96-well plates immediately following transfection.
(§2) Cells were incubated with coelenterazine (luciferase substrate) and different test compounds prior to the measurement of BRET signals.
(§3) Used in this project are i) Gα plasma membrane (GAPL) biosensors and the ii) β-arrestin plasma membrane translocation biosensor.
i) GAPL sensors are used to monitor the activation of heterotrimeric G proteins at the plasma membrane upon receptor stimulation. Specifically, these multimolecular BRET sensors detect the plasma membrane recruitment of proteins that interact with active Gα subunits in a G protein family-selective manner. G protein activation following receptor stimulation generally leads to an increase in the BRET signal.
(§4) HEK293 cells were maintained in Dulbecco's Modified Eagle Medium (DMEM) (Wisent; cat #319-030-CL: without sodium pyruvate, with 4.5 g/L glucose, without L-glutamine) supplemented with 1% penicillin-streptomycin (Wisent; cat #450-201-EL) and 2 or 10% fetal bovine serum (Wisent cat #090150).
(§5) HEK293 cells were co-transfected with hCB1 and one of the above-listed bioSensAll® assays. For each transfection condition: • the total amount of transfected DNA was kept constant at 1 μg per mL of cell culture to be transfected; whenever necessary, salmon sperm DNA (Invitrogen, cat #15632011) was used as ‘carrier’ DNA to supplement plasmid DNA (i.e., biosensor and receptor); • the PEI (polyethylenimine 25 kDa linear, PolyScience, cat #23966) to DNA ratio (ug:ug) was fixed at 3:1.
(§6) Transfections were carried out as follows: • DNA and PEI were first diluted separately in 150 mM NaCl. The volume of the diluent in each tube corresponds to 5% of the cell culture volume to be transfected. • Once DNA and PEI were diluted, the PEI-containing solution was added to the DNA solution and the DNA/PEI mixture immediately vortexed for 5 seconds. • The DNA/PEI mixture was incubated for at least 20 minutes at room temperature to allow for the formation of DNA/PEI complexes. • During the incubation, HEK293 cells were detached, counted and re-suspended in culture medium (composition specified above). • At the end of the incubation period, the DNA/PEI mixture was added to the cells. • Cells were finally distributed in 96-well plates (White Opaque 96-well/Microplates, Greiner, cat #655083 or CulturPlate-96, White Opaque 96-well Microplate, PerkinElmer, cat #6005688) at a density of 30,000 cells per well.
(§7) At 48 hours post-transfection: • Using 450-Select TS Biotek plate washer, culture medium was aspirated and replaced with 100 μL of Hank's Balanced Salt Solution buffer (HBSS) (Wisent, cat #319-067CL: without red phenol; with sodium bicarbonate, with calcium and magnesium, with HEPES) per well. • Plates were then incubated (equilibrated) at 37° C., 5% CO2 for 60 minutes. • Increasing doses of test compounds were then added to each well using the HP D300e digital dispenser (Tecan). All compounds were assayed at the following 12 concentrations (in nM) with each biosensor: 0.000, 0.013, 0.040, 0.120, 0.320, 0.960, 2.80, 8.00, 24.0, 70.0, 205 and 600. • Three to 5 minutes later, an assay-specific effective concentration (EC)75-80 of agonist CP55,940 (i.e., 0.1 nM and 100 nM for G[…]i2-GAPL or […]Arrestin2 (+GRK2) assay, respectively) was added to wells previously injected with test compound (i.e., previous step 3). […]
(Bioluminescence resonance energy transfer reports proximity on the nanometre scale.)

Experiment [2] has as its target T1, human CB1 receptor. The experiment in a line: bioSensAll β-arrestin2 plasma membrane translocation (+GRK2) BRET biosensor assay in HEK293 cells transfected with hCB1; test compound added before EC75-80 of agonist CP55,940 (100 nM). It is filed as cell-based. To be noted: βArrestin2 (+GRK2) BRET biosensor, vs CP55,940 100 nM (EC75-80), read-out: CB1 wt βarr2 IC50. As for the experimental part: as §1, §2, §3
ii) The multimolecular β-arrestin membrane recruitment biosensors allow for real-time spatio-temporal monitoring of β-arrestin 1 and β-arrestin 2 following GPCR activation. Specifically, these β-arrestin sensors were designed to detect the recruitment of proteins to the plasma membrane (β-arrestin PM) with localization to compartment resulting in an increased BRET signal.
as §4, §5, §6, §7

T1 sequence (P21554 whole entry): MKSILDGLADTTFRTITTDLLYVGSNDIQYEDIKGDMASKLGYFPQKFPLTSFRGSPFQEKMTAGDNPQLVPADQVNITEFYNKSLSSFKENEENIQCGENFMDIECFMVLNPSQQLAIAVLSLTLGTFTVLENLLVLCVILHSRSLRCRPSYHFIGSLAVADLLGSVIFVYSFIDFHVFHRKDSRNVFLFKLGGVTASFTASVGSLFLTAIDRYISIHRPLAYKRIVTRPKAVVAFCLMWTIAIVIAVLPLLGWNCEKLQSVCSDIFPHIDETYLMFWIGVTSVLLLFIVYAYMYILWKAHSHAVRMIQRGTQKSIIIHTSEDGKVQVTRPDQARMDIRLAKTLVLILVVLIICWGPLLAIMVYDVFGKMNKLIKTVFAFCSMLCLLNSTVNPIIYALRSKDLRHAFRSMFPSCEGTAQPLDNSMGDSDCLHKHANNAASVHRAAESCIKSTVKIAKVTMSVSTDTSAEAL

As a reminder, the IC50 is the concentration that gives 50% inhibition. For `CCN(CCO)c1nc(N2CCC(C)(C(N)=O)CC2)c2nc(-c3ccccc3Cl)n(-c3ccc(Cl)cc3)c2n1` [Compound 90, 1-[8-(2-chlorophenyl)-9-(4-chlorophenyl)-2-[ethyl(2-hydroxyethyl)amino]purin-6-yl]-4-methyl-piperidine-4-carboxamide], the IC50 was 0.52 nM on human CB1 receptor [1] and 1.36 nM at human CB1 receptor [2].
The matching figures for `CN1C[C@H](F)C[C@H]1COc1nc(N2CCC(C)(C(N)=O)CC2)c2nc(-c3ccccc3Cl)n(-c3ccc(Cl)cc3)c2n1` [Compound 232]: 0.934 nM and 1.94 nM.
For `C[C@H]1CN(c2nc(OCC(C)(C)O)nc3c2nc(-c2ccccc2Cl)n3-c2ccc(Cl)cc2)CCO1` [Compound 210], the half-maximal inhibitory concentration (IC50) at human CB1 receptor [1] came to 1.56 nM; at human CB1 receptor [2], 18.7 nM.
Turning to `CN(CCO)c1nc(N2CCC(C)(O)CC2)c2nc(-c3ccccc3Cl)n(-c3ccc(Cl)cc3)c2n1` [Compound 181], the IC50 is 0.181 nM on human CB1 receptor [1] and 0.592 nM at human CB1 receptor [2].
The corresponding values for `CC(CO)Oc1nc(N2CCC(C(F)(F)F)CC2)c2nc(-c3ccccc3Cl)n(-c3ccc(Cl)cc3)c2n1` (single isomer, unassigned) [Compound 24, 2-[8-(2-chlorophenyl)-9-(4-chlorophenyl)-6-[4-(trifluoromethyl)-1-piperidyl]purin-2-yl]oxypropan-1-01] are 0.707 nM and 1.91 nM.
The corresponding values for `C[C@H](O)COc1nc(N2CCC(C)(C(N)=O)CC2)c2nc(-c3ccccc3Cl)n(-c3ccc(Cl)cc3)c2n1` [Compound 80, 1-[8-(2-chlorophenyl)-9-(4-chlorophenyl)-2-[(2S)-2-hydroxypropoxy]purin-6-yl]-4-methyl-pi-peridine-4-carboxamide] are 1.02 nM and 5.09 nM.
The matching figures for `CN(CC(C)(C)O)c1nc(N2CC(C(N)=O)C2)c2nc(-c3ccccc3Cl)n(-c3ccc(Cl)cc3)c2n1` [Compound 128]: 9.52 nM and 39.5 nM.
Consider `CC(C)Nc1nc(OCC(C)(C)O)nc2c1nc(-c1ccccc1Cl)n2-c1ccc(Cl)cc1` [Compound 87], for which the IC50 came to 3.1 nM at human CB1 receptor [1] and 21.6 nM on human CB1 receptor [2].
`FC(F)(F)C1CCN(c2nc(OCCNCc3ccccc3)nc3c2nc(-c2ccccc2Cl)n3-c2ccc(Cl)cc2)CC1` [Compound 62, N-benzyl-2-[8-(2-chlorophenyl)-9-(4-chlorophenyl)-6-[4-(trifluoromethyl)-1-piperidyl]purin-2-yl]oxy-ethanamine]: the values for the IC50 at human CB1 receptor [1] and at human CB1 receptor [2] were 6.14 nM and 7.62 nM, respectively.
The matching figures for `CN(CCO)c1nc(N2CCC(C)(C(N)=O)CC2)c2nc(-c3ncccc3Cl)n(-c3ccc(Cl)cc3)c2n1` [Compound 49, 1-[9-(4-chlorophenyl)-8-(3-chloro-2-pyridyl)-2-[2-hydroxyethyl(methyl)amino]purin-6-yl]-4-methyl-piperidine-4-carboxamide]: 2.6 nM and 19.3 nM.
The matching figures for `CC(C)(O)COc1nc(N2CC(C)(C(N)=O)C2)c2nc(-c3ccc(C#N)nc3)n(-c3ccc(Cl)cc3)c2n1` [Compound 138]: 34.1 nM and over 5000 nM.
The matching figures for `CN(CCO)c1nc(NC2CN(C(N)=O)C2)c2nc(-c3ccccc3Cl)n(-c3ccc(Cl)cc3)c2n1` [Compound 176]: 15.6 nM and over 5000 nM.
In the case of `CCNC1(C(N)=O)CCN(c2nc(-n3ccnc3)nc3c2nc(-c2ccccc2Cl)n3-c2ccc(Cl)cc2)CC1` [Compound 152], the IC50 at human CB1 receptor [1] stood at 0.716 nM; on human CB1 receptor [2] it was 1.2 nM.
The corresponding values for `CN(C)c1ccc(-c2nc3c(N4CCC(C)(C(N)=O)CC4)nc(OCC(C)(C)O)nc3n2-c2ccc(Cl)cc2)cn1` [Compound 116, 1-[9-(4-chlorophenyl)-8-[6-(dimethylamino)-3-pyridyl]-2-(2-hydroxy-2-methyl-propoxy)purin-6-yl]-4-methyl-piperidine-4-carboxamide] are 68.8 nM and over 5000 nM.
The corresponding values for `COCCN(C)c1nc(N2CCC(C)(C(N)=O)CC2)c2nc(-c3ccccc3Cl)n(-c3ccc(Cl)cc3)c2n1` [Compound 42, 1-[8-(2-chlorophenyl)-9-(4-chlorophenyl)-2-[2-methoxyethyl(methyl)amino]purin-6-yl]-4-methyl-piperidine-4-carboxamide] are 0.695 nM and 2.39 nM.
The corresponding values for `CCNC1(C(N)=O)CCN(c2nc(NC(C)=O)nc3c2nc(-c2ccccc2Cl)n3-c2ccc(Cl)cc2)CC1` [Compound 145] are 0.973 nM and 3 nM.
For `COCCOc1nc(N2CCC(C)(C(N)=O)CC2)c2nc(-c3ccccc3Cl)n(-c3ccc(Cl)cc3)c2n1` [Compound 10, 1-[8-(2-chlorophenyl)-9-(4-chlorophenyl)-2-(2-methoxyethoxy)purin-6-yl]-4-methyl-piperidine-4-carboxamide], the results for the IC50 at human CB1 receptor [1] and on human CB1 receptor [2] were 1.47 nM and 6.8 nM, respectively.
As for `CC(C)OC1(C(N)=O)CCN(c2nc(OCC(C)(C)O)nc3c2nc(-c2ccccc2Cl)n3-c2ccc(Cl)cc2)CC1` [Compound 215], the IC50 stood at 0.707 nM at human CB1 receptor [1] and 1.64 nM at human CB1 receptor [2].
Consider `CCOC1(C(N)=O)CCCN(c2nc(OCC(C)(C)O)nc3c2nc(-c2ccccc2Cl)n3-c2ccc(Cl)cc2)C1` (single isomer, unassigned) [Compound 217], for which the values for the half-maximal inhibitory concentration (IC50) at human CB1 receptor [1] and at human CB1 receptor [2] were 27 nM and 73.7 nM, respectively.
The corresponding values for `Cc1ccn(-c2nc(N3CCC(C(F)(F)F)CC3)c3nc(-c4ccccc4Cl)n(-c4ccc(Cl)cc4)c3n2)n1` [Compound 22, 8-(2-chlorophenyl)-9-(4-chlorophenyl)-2-(3-methylpyrazol-1-yl)-6-[4-(trifluoromethyl)-1-piperidyl]purine] are 1.33 nM and 11.3 nM.
`CN(CCO)c1nc(N2CC(C)(O)C2)c2nc(-c3ccccc3Cl)n(-c3ccc(Cl)cc3)c2n1` [Compound 74]: the results for the concentration for half-maximal inhibition (IC50) at human CB1 receptor [1] and on human CB1 receptor [2] were 0.574 nM and 3.02 nM, respectively.
With `CC(C)(O)COc1nc(N2CC3CCC(C2)O3)c2nc(-c3ccccc3Cl)n(-c3ccc(Cl)cc3)c2n1` [Compound 214], the figures for the half-maximal inhibitory concentration (IC50) at human CB1 receptor [1] and at human CB1 receptor [2] were 1.09 nM and 6.06 nM, respectively.
The corresponding values for `C[C@H](CO)N(C)c1nc(N2CCC(C)(C(N)=O)CC2)c2nc(-c3ccccc3Cl)n(-c3ccc(Cl)cc3)c2n1` [Compound 67, 1-[8-(2-chlorophenyl)-9-(4-chlorophenyl)-2-[[(1R)-2-hydroxy-1-methyl-ethyl]-methyl-amino]purin-6-yl]-4-methyl-piperidine-4-carboxamide] are 1.27 nM and 4.38 nM.
Turning to `C[C@@H](CO)N(C)c1nc(N2CCC(C)(C(N)=O)CC2)c2nc(-c3ccccc3Cl)n(-c3ccc(Cl)cc3)c2n1` [Compound 66, 1-[8-(2-chlorophenyl)-9-(4-chlorophenyl)-2-[[(1S)-2-hydroxy-1-methyl-ethyl]-methyl-amino]purin-6-yl]-4-methyl-piperidine-4-carboxamide], the figures for the concentration for half-maximal inhibition (IC50) at human CB1 receptor [1] and at human CB1 receptor [2] were 0.586 nM and 1.45 nM, respectively.
The corresponding values for `COC1(C)CN(c2nc(N(C)CCO)nc3c2nc(-c2ccccc2Cl)n3-c2ccc(Cl)cc2)C1` [Compound 76] are 0.51 nM and 1.18 nM.
